Series [1] relates to male CD rats. The series is described as follows: Rat locomotor activity (hyperactivity) assay, open field. It is filed as in vivo. To be noted: for end of locomotor effect post administration: recording until 415-minute time point. The protocol:
In total, 206 male CD rats (Charles River, Germany) weighing 200-250 grams (165-190 grams upon arrival) were used in the study. Animals were housed at a standard temperature (22±1° C.) and in a light-controlled environment (lights on from 7 am to 8 pm) with ad libitum access to food and water. The experiment described below was performed in accordance with the standard operating procedures of Charles River Discovery Research Services Finland Ltd. and in accordance with the national Animal Experiment Board of Finland (Elainkoelautakunta, ELLA) authority on animal testing.
The test device is a square Plexiglass-arena (measuring 40×40×40 cm), in which the movement paths of the rats are recorded by an activity monitor (Med. Associates Inc.). Before the test period is initiated, rats are habituated to their test cage for 60 minutes. Upon completion of habituation, animals were treated with either compound or vehicle and placed back into the open field apparatus. The main test parameter measured is ambulatory distance (recorded in 5 minute segments). Overall time of measurement after receiving initial treatment was 360 minutes. Total follow up period in the study was 420 minutes, including 60 minutes of habituation.
Blood samples were taken and processed and analyzed as described under PK experiments in rats in Example 3.

Series [2] in a line: PK experiments in rats, plasma compound (I) after oral dosing. Particulars: for plasma concentrations of compound (I) after oral dosing (in words): oral dosing to Wistar rats. It is filed as in vivo, Han Wistar rats. The protocol:
Plasma was placed on water-ice following collection. Final storage at approximately −70° C.
Mobile phase B: Acetonitrile. […] Flow rate 0.5 mL/min.
The rats had unrestricted access to the diet.
Mobile phase B: Acetonitrile+0.2% formic acid. […] Flow rate 0.3 mL/min.
The rats received a standard laboratory diet Teklad 2014C. The rats had unrestricted access to the diet.

In series [3] the target is T1, human 5-HT2B receptor (Homo sapiens (Human), UniProt P41595). The series is described as follows: 5-HT2B agonist activity assay (IP1 production, HTRF). The format is cell-based. The protocol:
Evaluation of the agonist activity of compounds (I), (Ia), (Ib), (Ic), (Ia-iab), compound (2), compound (9), compound (15), compound (27), A2, A3, and A7 at the human 5-HT2B receptor was performed by Eurofins/Cerep (France) measuring the compound effects on inositol monophosphate (IP1) production using the HTRF detection method. Briefly, the human 5-HT2B receptor was expressed in transfected CHO cells. The cells were suspended in a buffer containing 10 mM Hepes/NaOH (pH 7.4), 4.2 mM KCl, 146 mM NaCl, 1 mM CaCl2, 0.5 mM MgCl2, 5.5 mM glucose and 50 mM LiCl, then distributed in microplates at a density of 4100 cells/well and incubated for 30 minutes at 37° C. in the presence of buffer (basal control), test compound or reference agonist. For stimulated control measurement, separate assay wells contained 1 μM 5-HT. Following incubation, the cells were lysed and the fluorescence acceptor (fluorophen D2-labeled IP1) and fluorescence donor (anti-IP1 antibody labeled with europium cryptate) were added. After 60 minutes at room temperature, the fluorescence transfer was measured at lambda(Ex) 337 nm and lambda(Em) 620 and 665 nm using a microplate reader (Rubystar, BMG). The IP1 concentration was determined by dividing the signal measured at 665 nm by that measured at 620 nm (ratio). The results were expressed as a percent of the control response to 1 μM 5-HT. The standard reference agonist was 5-HT, which was tested in each experiment at several concentrations to generate a concentration-response curve from which its EC50 value is calculated as described above for dopamine functional assays.
Background: TR-FRET usually uses a lanthanide donor and a delayed reading to cut background.

The conditions of series [4]: WO 2010/097092; cited from earlier work.
In series [5] the test system is rat hepatocytes. To be noted: WO 2010/097092; cited from earlier work.
Series [6] has as its system human hepatocytes. To be noted: WO 2010/097092; cited from earlier work.
Series [7] concerns the target T1, human 5-HT2B receptor. Briefly: 5-HT2B binding assay. Particulars: [125I](±)DOI, read-out: 5-HT2B binding affinity (% inhibition of control, specific binding). As for the experimental part:
Evaluation of the affinity of said compounds for the human 5-HT2B receptor was determined in a radioligand binding assay at Eurofins/Cerep (France). Membrane homogenates prepared from CHO cells expressing the human 5HT2B receptor were incubated for 60 min at room temperature with 0.2 nM [125I](±)DOI (1-(4-iodo-2,5-dimethoxyphenyl)propan-2-amine) in the absence or presence of the test compound in a buffer containing 50 mM Tris-HCl (pH 7.4), 5 mM MgCl2, 10 μM pargyline and 0.1% ascorbic acid. Nonspecific binding is determined in the presence of 1 μM (±)DOI. Following incubation, the samples were filtered rapidly under vacuum through glass fiber filters (GF/B, Packard) presoaked with 0.3% polyethyleneimine (PEI) and rinsed several times with ice-cold 50 mM Tris-HCl using a 96-sample cell harvester (Unifilter, Packard). The filters were dried and counted for radioactivity in a scintillation counter (Topcount, Packard) using a scintillation cocktail (Microscint 0, Packard). The results are expressed as a percent inhibition of the control radioligand specific binding. The standard reference compound was (±)DOI, which was tested in each experiment at several concentrations to obtain a competition curve from which its IC50 is calculated.

The subject of series [8] is human hepatocytes. Briefly: Conversion of compounds in human hepatocytes. It is filed as in vitro ADME. Particulars: 1 μM compound, 37° C.; nd: not detected. The protocol: Incubations were conducted in 96-well plates at 1 μM compound concentration in duplicate. The hepatocyte cell concentration was 0.5×10^6 cells/mL used for final incubation at 37° C. in an incubator of 5% CO2 95% relative humidity. The medium control samples were included at 0 and 60 minutes in the absence of cells. The total organic concentration was 1% (DMSO 0.1%) in the final incubation. The controls, (7-ethoxycoumarin and 7-hydroxycoumarin) was incubated parallel at 3 μM. 2 μL of dosing solution (50 μM for test compounds and 100 μM for positive control) was mixed with 98 μL of 100 mM PBS to achieve 1 μM test compound and 2 μM positive control of final concentration. The mixture was incubated, and samples were withdrawn from the incubations at pre-determined time points of 0, 0.5, 1, 2, 4 and 6 hr (in duplicate) at 37° C. in water bath. To each sample, 10 μL inhibitor and 20 μL ascorbic acid and 2 μL formic acid (20%) were added followed by 400 μL of stop solution (200 ng/mL tolbutamide plus 200 ng/mL labetalol in 50% ACN/MeOH). The substance was mixed thoroughly and thereafter centrifuged at 4,000 rpm for 20 minutes. An aliquot of supernatant (50 μL) from each well were transferred to a sample plate and mixed with 100 μL ultrapure water. The plate was shaked at 800 rpm for about 10 minutes before submitting to LC-MS/MS analysis.
(§1) Mass spectrometer (LC-MS/MS) Shimadzu LC 20-AD Shimadzu UHPLC API 4000. Analytical column ACQUITY UPLC® BEH Phenyl 1.7 μm 2.1×50 mm. Mobile phase A: 0.1% Formic Acid in Water. Mobile phase B: 0.1% Formic Acid in Acetonitrile. […] Flow rate 0.7 mL/min.

Series [9] can be described thus: Conversion of compounds in human plasma. It is filed as in vitro ADME. As for the experimental part:
Frozen human plasma was thawed and then centrifuged at 3200×g for 5 min to remove debris. The pH value of the supernatant was then measured and adjusted to 7.4±0.1 by adding 1% phosphoric acid or 1 N sodium hydroxide. 2 μL of dosing solution (50 μM for test compounds and 100 μM for positive control (propantheline bromide)) was mixed with 98 μL of blank plasma to achieve 1 μM test compound and 2 μM positive control of final concentration. The mixture was incubated, and samples were withdrawn from the incubations at the pre-determined time points of 0, 0.5, 1, 2, 4 and 6 hr (in duplicate) at 37° C. in water bath. At each corresponding time point 10 μL inhibitor and 20 μL ascorbic acid and 2 μL formic acid (20%) are added, and then added 400 μL of “stop solution” (200 ng/mL tolbutamide plus 200 ng/mL labetalol in 50% ACN/MeOH) to precipitate protein. The substance was mixed thoroughly and thereafter Centrifugated at 4,000 rpm for 20 minutes. Then an aliquot of supernatant (50 μL) was transferred from each well to a sample plate and mixed with 100 μL ultrapure water. The plate was shaked at 800 rpm for about 10 minutes before submitting to LC-MS/MS analysis.
as §1

The conditions of series [10]: Liu et al., Bioorganic Med. Chem. (2008); cited from earlier work.
Series [11] is described as follows: In vitro dopaminergic activity (data not shown).
The conditions of series [12]: Liu et al.; cited from earlier work.
For series [13] the following is noted: in man after oral dosing; cited from earlier work.
For series [14] the following is noted: intravenous (IV), PD patients; cited from earlier work.
Where [15] appears, read: (Id-ia) 10 to 300 μg/kg p.o., apomorphine 3 mg/kg s.c., pramipexole 0.3 mg/kg s.c.
Where [16] appears, read: (Id-ia) 10 to 300 μg/kg p.o., apomorphine 3 mg/kg s.c.

“Also recorded” adds a separate entry of the source.

T1 sequence (P41595 whole entry): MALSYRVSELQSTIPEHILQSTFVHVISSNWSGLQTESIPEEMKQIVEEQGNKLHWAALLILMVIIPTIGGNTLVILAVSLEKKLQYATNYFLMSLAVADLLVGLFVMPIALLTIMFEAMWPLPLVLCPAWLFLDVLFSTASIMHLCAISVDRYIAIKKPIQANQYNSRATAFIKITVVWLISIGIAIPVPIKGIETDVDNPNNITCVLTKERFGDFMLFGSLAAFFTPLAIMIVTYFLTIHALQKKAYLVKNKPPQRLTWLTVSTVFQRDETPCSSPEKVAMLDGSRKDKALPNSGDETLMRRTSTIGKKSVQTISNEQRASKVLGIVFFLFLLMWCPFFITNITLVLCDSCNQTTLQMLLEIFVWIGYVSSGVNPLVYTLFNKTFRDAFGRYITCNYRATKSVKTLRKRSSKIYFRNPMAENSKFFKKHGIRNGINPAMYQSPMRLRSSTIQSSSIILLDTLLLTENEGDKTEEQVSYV

In the case of `CCCN[C@H]1CCc2nc(N)sc2C1` [Pramipexole, pramipexole, reference compound], in series [1] (setting [15]), the “effect on locomotor activity” value is given as “increase in activity”.

Consider `CCCN1CCC[C@@H]2Cc3c(ccc4c3OCO4)C[C@H]21` [(Ib), (6aR,10aR)-7-propyl-6,6a,7,8,9,10,10a,11-octahydro-[1,3]dioxolo[4′,5′:5,6]benzo[1,2-g]quinoline], for which the “plasma concentrations of compound (I) after oral dosing (in words)” value in [2] was “early and high peak plasma concentrations”. In series [3], the “5-HT2B receptor agonism (in words)” value is “agonist”. In series [4], the “in vivo pharmacology in animal models relevant for Parkinson's Disease” value (“in vivo pharmacology” below) was “effective”. Further, the “conversion to compound (I) in rat hepatocytes” value in series [5] is recorded as “demonstrated”. In addition, the “conversion to compound (I) in human hepatocytes” value in [6] is “demonstrated”.

Regarding `CCCN1CCC[C@@H]2Cc3c(ccc(O[C@@H]4O[C@H](C(=O)O)[C@@H](O)[C@H](O)[C@H]4O)c3O)C[C@H]21` [(Id-ib), (2S,3S,4S,5R,6S)-3,4,5-tri hydroxy-6-(((4aR,10aR)-6-hydroxy-1-propyl-1,2,3,4,4a,5,10,10a-octahydrobenzo[g]quinolin-7-yl)oxy)tetrahydro-2H-pyran-2-carboxylic acid], the “Observed metabolite, In vivo PK study after oral dosing (rats)” value in [2] is on record as “Compound (I)”. Moreover, the inhibition at 10 µM in series [7] was -39%. The “Observed metabolite, Incubation in human hepatocytes” value in [8] is listed as “Compound (I)”. In addition, in series [9] (1 μM test compound, 37° C., 0-6 hr, nd: not detected), the “Observed metabolite, Incubation in human plasma” value is recorded as “Compound (I)”.

Consider `CCCN1CCC[C@@H]2Cc3c(ccc(O)c3O)C[C@H]21` [(I), (4aR,10aR)-1-Propyl-1,2,3,4,4a,5,10,10a-octahydro-benzo[g]quinoline-6,7-diol], for which the “in vivo pharmacology” value in [4] is recorded as “effective”. In addition, the “half-life in the plasma assay” value in [9] (human plasma) is “short half-life”. The “oral bioavailability (in words)” value in series [10] is reported as “low oral bioavailability”.

Consider `CCCN1CCC[C@@H]2Cc3c(ccc(O)c3O[C@@H]3O[C@H](C(=O)O)[C@@H](O)[C@H](O)[C@H]3O)C[C@H]21` [(Id-ia), (2S,3S,4S,5R,6S)-3,4,5-trihydroxy-6-(((4aR,10aR)-7-hydroxy-1-propyl-1,2,3,4,4a,5,10,10a-octahydrobenzo[g]quinolin-6-yl)oxy)tetrahydro-2H-pyran-2-carboxylic acid], for which the “Observed metabolite, In vivo PK study after oral dosing (rats)” value in series [2] is “Compound (I)”. In series [1] (setting [15]), the “effect on locomotor activity” value is on record as “dopaminergic effect; also recorded: increases locomotor activity” and the “start of locomotor effect post-administration” value was around 2 h. Besides, the “end of locomotor effect post administration” value in [1] (setting [16]) was “lasting until the end of recording”. Besides, the total distance travelled result in [1] (relative to vehicle, FIG. 4) is reported as “significantly increased activity”. In series [11], the “in vitro dopaminergic activity” value was “no in vitro dopaminergic activity”.

Consider `CCCN1CCC[C@@H]2CC3=C(CCCC3=O)C[C@H]21` [(Ia), reference compound], for which the “plasma concentrations of compound (I) after oral dosing (in words)” value in series [2] was “early and high peak plasma concentrations”. For the same compound, in series [3] (IP1 production, transfected CHO cells), the EC50 was above 6 µM. Besides, the activity at 30 µM in [3] (read-out: 5-HT2B agonist activity, percent of control response) was 58%. Further, in [4], the “in vivo pharmacology” value was “effective”. Moreover, in series [12], the “conversion to compound (I) in rats” value is recorded as “converted to the active compound (I)”.

In the case of `CCCc1cc2c(s1)CN[C@@H]1CCc3cc(OC(C)=O)c(OC(C)=O)cc3[C@@H]21` [Adrogolide, adrogolide], the oral bioavailability in series [13] was around 4%. Also, in series [14], the antiparkinson efficacy entry was “comparable to that of L-DOPA”.

In the case of `CN1CCc2cccc3c2[C@H]1Cc1ccc(O)c(O)c1-3` [apomorphine, reference compound], the “end of locomotor effect post administration” value in series [1] (setting [16]) was 1.5 h.

The term inhibition denotes the relative decrease from the control value, in per cent. Broadly, the EC50 is the concentration at which the effect is half-maximal.

The values are drawn from US12384765B2, “Catecholamine prodrugs for use in the treatment of Parkinson's Disease” (H. Lundbeck A/S, priority 2019, dated 2025).
